Source: patent publication US8758746B2, “Fertilization modulation compounds and process for implementing them” (Universite Joseph Fourier, priority 2009, dated 2014)
“Also recorded” adds a separate entry of the source.

What was measured:
[1] = system: Sperm cells; assay: Electron microscopy of sPLA2-induced acrosome reaction; format: cell-based, mouse; details: uncapacitated sperm, incubated 10 min (200 nM sPLA2)
Protocol: Sperm cells were fixed with 2.5% glutaraldehyde in 0.1 M cacodylate buffer pH 7.4 during 2 hours at room temperature. Cells were then washed with buffer and post fixed with 1% Osmium tetroxyde in the same buffer during 1 hour at 4° C. After extensive washing with water cells were then stained with 0.5% uranile acetate pH 4 overnight at 4° C. Cells were then dehydrated through graded alcohol (30%-60%-90%-100%-100%-100%) and infiltrate with a mix of 1/1 epon/alcohol 100% during 1 hour before several bath of fresh epon (Flukka) during 3 hours. Finally, cells were centrifugated and immersed in fresh Epon and polymerised during 3 days at 60° C. Ultrathin sections of the cell pellet were cut with an ultramicrotome (Leica). Sections were post-stained with 4% uranile acetate and 1% lead citrate before being observed in an electron microscope at 80 kV (JEOL 1200EX).
It was important to check with electron microscopy (EM) that sPLA2 induced a morphologically normal acrosome reaction. The morphological criteria by which an acrosome reaction is evaluated to be normal are relatively limited: first, the outer acrosomal membrane should present vesiculation, second, the plasma membrane should fuse with the outer acrosomal membrane and present a characteristic double hair pin shape at the base of the acrosome (Green, D. P. (1978) The induction of the acrosome reaction in guinea-pig sperm by the divalent metal cation ionophore A23187. J. Cell Sci., 32:137-51.:137-151.)
For these experiments, uncapacitated sperm was used in order to reduce the contribution of spontaneous AR and 200 nM sPLA2 to get maximum sPLA2-induced AR. Sperm were incubated 10 min with mGX sPLA2 or the calcium ionophore A23187 and then fixed. In the presence of A23187, all acrosome-reacted sperm presented complete AR, with the 3 morphological criteria, as described above.

[2] = system: Sperm cells; assay: Detection of mGX sPLA2 released from sperm cells (TR-FIA); format: cell-based, mouse; details: 90 min capacitation in 2% BSA, A23187 (5 μM) during the last 30 min
Protocol: Sperm cells from 4 caudae epididymes of mGX sPLA2 mice were allowed to swim for 15 min at 37° C. in 2.5 ml of M2 medium. Aliquots of 500 μl of sperm cells were then diluted in 4.5 ml of M16 medium containing 2% fatty acid free BSA and further incubated at 37° C. for 0, 45 and 90 min. In some assays, A23187 Ca2+ ionophore (5 μM) was added after the first 60 min of incubation and sperm cells were incubated for an additional 30 min. After incubation, sperm cells were spun down for 8 min at 1,200 rpm, and supernatants and cell pellets were flash frozen in liquid nitrogen and stored at −80° C. mGX sPLA2 protein expression and enzymatic activity were analyzed on crude cell supernatants and cell pellets after resuspension in 500 μl of M16 medium containing a cocktail of protease inhibitors (Complete inhibitor set, Roche Biochemicals) and lysis with a Branson 350 Sonifier Cell disrupter. […] Briefly, 5 to 50 μl of cell lysates or supernatants were incubated for 60 min in 300 μl of sPLA2 activity buffer (0.1 M Tris pH 8.0, 10 mM CaCl2, and 0.1% bovine serum albumin containing 100,000 DPM of [3H]oleate-radiolabeled E. coli membranes. Reactions were stopped by addition of 300 μl of stop buffer (0.1 M EDTA pH 8.0 and 0.1% fatty acid free bovine serum Albumin); mixtures were centrifuged at 10,000 g for 5 min, and the supernatants containing released [^3H]oleate were counted.

Q: What does the source list for `CNc1ccc2oc(C[C@H]3O[C@@]4(CC[C@H]3C)O[C@H]([C@H](C)C(=O)c3ccc[nH]3)[C@H](C)C[C@H]4C)nc2c1C(=O)O` [A23187]?
A: morphology of induced acrosome reaction (electron microscopy) [1]: complete AR; mGX level in the capacitation medium (TRFIA) [2]: two fold increase; also recorded: doubled
